Assay results as given in patent US6656921B1, “Use of zinc hyaluronate against peptic ulcer” (Richter Gedeon Vegyeszeti Gyar RT., priority 1997, dated 2003).

Test system: acidified ethanol induced gastric lesion
Experiment: Inhibition of acidified-ethanol induced gastric lesions
Assay type: in vivo, rat
Experimental: Female RG-Wistar rats weighing between 120-150 g were used. Before experiments animals were fasted for 24 hours but received water ad libitum.
Experiments were carried out according to the technique similar to that described by A. Robert [Gastroenterology 77, […] (1979)].
Acidified ethanol (mixture of 50 ml of abs. ethanol and 1 ml of concentrated HCI) was used as strong irritants. Dose of acidified ethanol was 0.5 ml/100 g body weight with intragastric administration. Test compounds were given orally 30 minutes before the acidified ethanol challenge. When the duration of action of test compound was studied test material was administered 60 or 120 minutes earlier to the irritating effect induced by acidified-ethanol effect. One hour after the acidified ethanol treatment rats were sacrificed by cervical dislocation. Stomachs were removed and opened along the greater curvature and mildly washed down. The longitudinal hemorrhagic lesions were assayed by length.
ED50 value was defined as the dose that gave a 50% decrease in ulcer index.

[1] = 10 mg/kg p.o., 30 min before acidified ethanol
[2] = 25 mg/kg p.o., 30 min before acidified ethanol
[3] = 25 mg/kg p.o., pretreatment time 60 minutes
[4] = 25 mg/kg p.o., pretreatment time 120 minutes
[5] = 50 mg/kg p.o., 30 min before acidified ethanol
[6] = 50 mg/kg p.o., pretreatment time 60 minutes
[7] = 50 mg/kg p.o., pretreatment time 120 minutes
[8] = 100 mg/kg p.o., 30 min before acidified ethanol
[9] = 100 mg/kg p.o., pretreatment time 60 minutes
[10] = 100 mg/kg p.o., pretreatment time 120 minutes

zinc hyaluronate [Zinc hyaluronate (M)]
Inhibition [1]: 47.7%
Lesion length/stomach mm ± S.E.M. [1]: 57.9 ± 8.2 mm
Inhibition [2]: 69.9%
Lesion length/stomach mm ± S.E.M. [2]: 33.3 ± 7.7 mm
Inhibition [3]: 28.7%
Lesion length/stomach mm ± S.E.M. [3]: 49.7 ± 5.9 mm
Inhibition [4]: 12.2%
Lesion length/stomach mm ± S.E.M. [4]: 53.2 ± 7.7 mm
Inhibition [5]: 88.3%
Lesion length/stomach mm ± S.E.M. [5]: 13.0 ± 3.0 mm
Inhibition [6]: 45.6%
Lesion length/stomach mm ± S.E.M. [6]: 37.9 ± 12.2 mm
Inhibition [7]: 45.9%
Lesion length/stomach mm ± S.E.M. [7]: 32.8 ± 7.5 mm
Inhibition [8]: 97.6%
Lesion length/stomach mm ± S.E.M. [8]: 2.7 ± 1.4 mm
Inhibition [9]: 93.4%
Lesion length/stomach mm ± S.E.M. [9]: 4.6 ± 1.7 mm
Inhibition [10]: 83.0%
Lesion length/stomach mm ± S.E.M. [10]: 10.3 ± 4.6 mm
ED50 (dose giving 50% decrease in ulcer index) (p.o., 30 min pretreatment): 10.4 mg/kg
